What was measured:
[1] = Half life in pig liver at 50 uM; assay type: ADME, organism-based, Sus scrofa; settings: pig liver (preparation not specified)
[2] = Half life in pig liver at 12 uM; assay type: ADME, organism-based, Sus scrofa; settings: pig liver (preparation not specified)

Structure (SMILES) | half-life at 50 µM [1] | half-life at 12 µM [2]
C=CCNCCCCN | 35 min | –
C=CCNCCCCNC | – | 12 min

Reference: ChEMBL document CHEMBL1123077, “N-2,3-Butadienyl-1,4-butanediamine derivatives: potent irreversible inactivators of mammalian polyamine oxidase” (J Med Chem, 1985)
